Measurements reported in patent publication US9795632B2, “Cancer treatments and compositions for use thereof” (priority 2012, dated 2017).

What was measured:
[1] = tested on: micro-capillary blood flow to skin; assay: Laser Doppler microcirculation study in three human female subjects, 10,000 ppm NO (Example 5); assay type: in vivo; settings: applied to the skin at 1/10% in alcohol
Protocol: This example illustrates delivery of nitric oxide formulations similar to those discussed herein in humans. In these studies, laser Doppler studies were performed on three human female subjects. […] The formulations used produce positive, almost immediate results when applied to the skin which, in these studies, was manifested by vasodilatation of the cutaneous vascular system.
While nitric oxide has many physiological effects, the purpose of these studies was to measure physiological effects that would be relatively easy to determine, and which would be noninvasive. […] Nitric oxide is capable of […] the capillary bed, and thus, laser Doppler was selected.
The formulation used in these studies contained nitric oxide dispersed in a lipid matrix. […] This provided a stable measuring device as determined by multiple normal evaluations of the capillary blood flow without treatment of nitric oxide.
A known positive control, methyl nicotinate, was applied to the skin at a concentration of 1/10% in alcohol. […] The laser Doppler device accurately measured these parameters.
In these studies, the participants were healthy females aged 30 to 55 years. They were in good health as determined by the medical history and were not taking any prescription medications. All study participants read and signed the informed consent statement prior to any study procedures being performed. […]

[2] = tested on: capillary circulation of the skin; assay: Laser Doppler circulation study in five human subjects (Example 7); assay type: in vivo; settings: positive control formulation containing 0.1% methyl nicotinate
Text: This example illustrates delivery of nitric oxide formulations to five human subjects, using procedures and formulations similar to those discussed in Example 5. Each person served as their own control for the testing. A Moor Instruments Laser Doppler was used to determine circulation. […] The formulations used produce positive, almost immediate results when applied to the skin which, in these studies, was manifested by vasodilatation of the cutaneous vascular system. For each subject, the following creams were applied: a negative control formulation (containing no NO), 0.010 gram of a 10,000 ppm NO formulation, 0.020 gram of a 10,000 ppm NO formulation, and a positive control formulation containing 0.1% methyl nicotinate. The formulations were prepared using procedures similar to those discussed in Example 1.

## COC(=O)c1cccnc1 [methyl nicotinate]
[1]
  Vasodilator response of positive control: rapid response typical of the vasodilator
[2]
  Vasodilatation (laser Doppler): vasodilatation was observed
